Assay results: patent US20110082130A1 (LIGAND PHARMACEUTICALS, INC., priority 2006, published 2011)

biological target: T1, chimeric human H3 receptor (Homo sapiens, UniProt Q9Y5N1); test: Chimeric human H3 receptor GTP binding assay (agonist-stimulated GTP-gamma35S binding, Example 7); type: biochemical; conditions: Table I; P2 membranes of Sf9 cells, 1 μM histamine as agonist, Ki from IC50 by Cheng-Prusoff
T1 construct: made in house; host or cells: Sf9 insect cells (baculovirus); P2 membrane preparation
In short: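 Sf9 membranes co-expressing chimeric human H3 receptor and heterotrimeric G-protein, 35 μg/tube, in pH 7.4 Tris buffer with 10 μM GDP. Test compounds (10^−10–10^−6 M) competed against 1 μM histamine, […] GTP-gamma35S, 60 min at room temperature. Filter-bound radioactivity counted; IC50 converted to Ki by Cheng-Prusoff. Agonism/inverse agonism tested without histamine (EC50).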

T1 sequence (Q9Y5N1 with tags, fused parts or gaps): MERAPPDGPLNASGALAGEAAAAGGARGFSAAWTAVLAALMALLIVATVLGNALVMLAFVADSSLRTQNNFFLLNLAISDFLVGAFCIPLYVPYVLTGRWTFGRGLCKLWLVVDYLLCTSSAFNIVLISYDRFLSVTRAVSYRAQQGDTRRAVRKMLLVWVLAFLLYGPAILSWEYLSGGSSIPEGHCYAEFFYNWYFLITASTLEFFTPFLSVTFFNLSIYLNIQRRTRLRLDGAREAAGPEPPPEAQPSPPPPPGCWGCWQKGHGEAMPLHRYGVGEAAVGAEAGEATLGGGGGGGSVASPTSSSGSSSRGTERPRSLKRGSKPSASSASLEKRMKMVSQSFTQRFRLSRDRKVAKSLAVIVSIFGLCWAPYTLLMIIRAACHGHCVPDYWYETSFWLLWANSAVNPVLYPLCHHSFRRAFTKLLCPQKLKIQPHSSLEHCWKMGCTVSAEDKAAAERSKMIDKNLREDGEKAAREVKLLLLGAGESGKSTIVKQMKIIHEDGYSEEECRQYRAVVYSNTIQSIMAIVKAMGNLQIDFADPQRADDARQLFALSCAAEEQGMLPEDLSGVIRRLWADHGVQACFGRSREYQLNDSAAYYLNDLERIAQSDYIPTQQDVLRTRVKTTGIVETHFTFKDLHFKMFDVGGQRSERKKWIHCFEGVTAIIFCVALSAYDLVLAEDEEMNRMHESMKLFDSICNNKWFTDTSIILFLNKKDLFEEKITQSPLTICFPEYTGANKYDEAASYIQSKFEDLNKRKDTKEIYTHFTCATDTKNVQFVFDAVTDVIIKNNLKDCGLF

Ki, < 1 µM:
CCC1c2ccccc2CCN1CC(=O)N1CCN(C(C)C)CC1 (stereo not drawn) [Compound 56, 1-ethyl-2-[2-(4-isopropylpiperazin-1-yl)-2-oxoethyl]-1,2,3,4-tetrahydroisoquinoline]
O=C(CN1CCc2cc(Br)ccc2C1c1ccccc1Cl)N1CCN(C2CCC2)CC1 (stereo not drawn) [Compound 63, 6-bromo-1-(2-chlorophenyl)-2-[2-(4-cyclobutylpiperazin-1-yl)-2-oxoethyl]-1,2,3,4-tetrahydroisoquinoline]
CC(C)N1CCN(C(=O)CN2CCc3ccccc3C2c2ccccc2F)CC1 (stereo not drawn) [Compound 58, 1-(2-fluorophenyl)-2-[2-(4-isopropylpiperazin-1-yl)-2-oxoethyl]-1,2,3,4-tetrahydroisoquinoline]
COc1cc2c(cc1OC)CN(CC(=O)N1CCN(C3CCC3)CC1)CC2 [Compound 48, 2-[2-(4-cyclobutylpiperazin-1-yl)-2-oxoethyl]-6,7-dimethoxy-1,2,3,4-tetrahydroisoquinoline]
CC(C)N1CCN(C(=O)CN2CCc3ccccc3C2c2ccccc2)CC1 (stereo not drawn) [Compound 52, 2-[2-(4-isopropylpiperazin-1-yl)-2-oxoethyl]-1-phenyl-1,2,3,4-tetrahydroisoquinoline]

same assay, conditions: Table II "Ki", symbol *; assay of Example 7

Ki, < 1 µM:
CN(C)CCc1cccc(-c2ccc3c(c2)CCN(CC(=O)N2CCN(C4CCC4)CC2)C3)c1 [Compound 644, 2-(3-{2-[2-(4-cyclobutylpiperazin-1-yl)-2-oxoethyl]-1,2,3,4-tetrahydroisoquinolin-6-yl}phenyl)-N,N-dimethylethanamine]
O=C(CN1CCc2cc(-c3ccc(C(F)(F)F)cn3)ccc2C1)N1CCN(C2CCC2)CC1 [Compound 632, 2-[2-(4-cyclobutylpiperazin-1-yl)-2-oxoethyl]-6-[5-(trifluoromethyl)pyridin-2-yl]-1,2,3,4-tetrahydroisoquinoline]
COc1ccc(-c2ccc3c(c2)CCN(CC(=O)N2CCN(C4CCC4)CC2)C3)cc1C [Compound 540, 2-[2-(4-cyclobutylpiperazin-1-yl)-2-oxoethyl]-6-(4-methoxy-3-methylphenyl)-1,2,3,4-tetrahydroisoquinoline]
O=C(CN1CCc2nc(NCC3CCCCC3)ccc2C1)N1CCN(C2CCC2)CC1 [Compound 659, 6-[2-(4-cyclobutylpiperazin-1-yl)-2-oxoethyl]-N-(cyclohexylmethyl)-5,6,7,8-tetrahydro-1,6-naphthyridin-2-amine]
C[C@H]1CN(C(=O)CN2CCc3cc(-c4cncnc4)ccc3C2)CCN1C1C[C@H]2CC[C@@H]1C2 (stereo partly drawn) [Compound 624, 2-(2-{(3S)-4-[(1R,4S)-bicyclo[2.2.1]hept-2-yl]-3-methylpiperazin-1-yl}-2-oxoethyl)-6-pyrimidin-5-yl-1,2,3,4-tetrahydroisoquinoline]
Cc1ccc(-c2ccc3c(c2)CCN(CC(=O)N2CCN(C4CCC4)CC2)C3)nc1 [Compound 629, 2-[2-(4-cyclobutylpiperazin-1-yl)-2-oxoethyl]-6-(5-methylpyridin-2-yl)-1,2,3,4-tetrahydroisoquinoline]
CC(C)CNc1ccc2c(n1)CCN(CC(=O)N1CCN(C3CCC3)CC1)C2 [Compound 651, 6-[2-(4-cyclobutylpiperazin-1-yl)-2-oxoethyl]-N-isobutyl-5,6,7,8-tetrahydro-1,6-naphthyridin-2-amine]
CC(C)CCNc1ccc2c(n1)CCN(CC(=O)N1CCN(C3CCC3)CC1)C2 [Compound 652, 6-[2-(4-cyclobutylpiperazin-1-yl)-2-oxoethyl]-N-(3-methylbutyl)-5,6,7,8-tetrahydro-1,6-naphthyridin-2-amine]

same assay, conditions: Table II; "*" = Ki in assay of Example 7 less than 1 micromolar

Ki, < 1 µM:
N#Cc1ccc(-n2cc3c(n2)CCN(CC(=O)N2CCN(C4CCC4)CC2)C3)nn1 [Compound 203, 6-{5-[2-(4-cyclobutylpiperazin-1-yl)-2-oxoethyl]-4,5,6,7-tetrahydro-2H-pyrazolo[4,3-c]pyridin-2-yl}pyridazine-3-carbonitrile]
O=C(CN1CCc2nn(-c3ccc(N4CCCC4)nn3)cc2C1)N1CCN(C2CCC2)CC1 [Compound 258, 5-[2-(4-cyclobutylpiperazin-1-yl)-2-oxoethyl]-2-(6-pyrrolidin-1-ylpyridazin-3-yl)-4,5,6,7-tetrahydro-2H-pyrazolo[4,3-c]pyridine]
CC1CCC[C@H]2CN(C(=O)CN3CCc4cc(-n5cccn5)ccc4C3)CCN12 (stereo in doubt) [Compound 152, 6-methyl-2-{[6-(1H-pyrazol-1-yl)-3,4-dihydroisoquinolin-2(1H)-yl]acetyl}octahydro-2H-pyrido[1,2-a]pyrazine]
Cc1cnn(-c2ccc3c(c2)CCN(CC(=O)N2CCN(C4CCC4)CC2)C3)c1 [Compound 217, 2-[2-(4-cyclobutylpiperazin-1-yl)-2-oxoethyl]-6-(4-methyl-1H-pyrazol-1-yl)-1,2,3,4-tetrahydroisoquinoline]
O=C(CN1CCc2nn(-c3cncc(Cl)n3)cc2C1)N1CCN(C2CCC2)CC1 [Compound 267, 2-(6-chloropyrazin-2-yl)-5-[2-(4-cyclobutylpiperazin-1-yl)-2-oxoethyl]-4,5,6,7-tetrahydro-2H-pyrazolo[4,3-c]pyridine]
CC1CN(C(=O)CN2CCc3nc(-c4cncnc4)sc3C2)CCN1C1CCC1 (stereo not drawn) [Compound 111, 5-[2-(4-cyclobutyl-3-methylpiperazin-1-yl)-2-oxoethyl]-2-pyrimidin-5-yl-4,5,6,7-tetrahydro[1,3] thiazolo [5,4-c]pyridine]
O=C(CN1CCc2ncc(N3CCOCC3)nc2C1)N1CCN(C2CCC2)CC1 [Compound 241, 6-[2-(4-cyclobutylpiperazin-1-yl)-2-oxoethyl]-3-morpholin-4-yl-5,6,7,8-tetrahydropyrido[3,4-b]pyrazine]
O=C(CN1CCc2cc(-n3nccn3)ccc2C1)N1CCN(C2CCC2)CC1 [Compound 209, 2-[2-(4-cyclobutylpiperazin-1-yl)-2-oxoethyl]-6-(2H-1,2,3-triazol-2-yl)-1,2,3,4-tetrahydroisoquinoline]
O=C(CN1CCc2cc(-c3ccccn3)ccc2C1)N1CCN(C2CCC2)CC1 [Compound 130, 2-[2-(4-cyclobutylpiperazin-1-yl)-2-oxoethyl]-6-pyridin-2-yl-1,2,3,4-tetrahydroisoquinoline]

same assay, conditions: Table II; assay of Example 7

Ki, < 1 µM:
Cc1nc(N2CCOCC2)nc2c1CN(CC(=O)N1CCN(C3CCC3)CC1)CC2 [Compound 692, 6-[2-(4-cyclobutylpiperazin-1-yl)-2-oxoethyl]-4-methyl-2-morpholin-4-yl-5,6,7,8-tetrahydropyrido[4,3-d]pyrimidine]

same assay, conditions: assay of Example 7; "*" in Ki of Table II

Ki, < 1 µM:
CCc1cccc(-c2nc3c(s2)CN(CC(=O)N2CCN(C4CCC4)CC2)CC3)c1 [Compound 313, 5-[2-(4-cyclobutylpiperazin-1-yl)-2-oxoethyl]-2-(3-ethylphenyl)-4,5,6,7-tetrahydro[1,3]thiazolo [5,4-c]pyridine]
O=C(CN1CCc2cc(-c3ccc4c(c3)OCCO4)ccc2C1)N1CCN(C2CCCC2)CC1 [Compound 381, 2-[2-(4-cyclopentylpiperazin-1-yl)-2-oxoethyl]-6-(2,3-dihydro-1,4-benzodioxin-6-yl)-1,2,3,4-tetrahydroisoquinoline]
O=C(CN1CCc2nc(-c3ccc(Cl)c(F)c3)sc2C1)N1CCN(C2CCC2)CC1 [Compound 352, 2-(4-chloro-3-fluorophenyl)-5-[2-(4-cyclobutylpiperazin-1-yl)-2-oxoethyl]-4,5,6,7-tetrahydro[1,3]thiazolo [5,4-c]pyridine]
Cc1cccc(-c2nc3c(s2)CN(CC(=O)N2CCN(C4CCC4)CC2)CC3)c1 [Compound 304, 5-[2-(4-cyclobutylpiperazin-1-yl)-2-oxoethyl]-2-(3-methylphenyl)-4,5,6,7-tetrahydro[1,3]thiazolo [5,4-c]pyridine]
Cc1ccc(-c2nc3c(s2)CN(CC(=O)N2CCN(C4CCC4)CC2)CC3)cc1C [Compound 308, 5-[2-(4-cyclobutylpiperazin-1-yl)-2-oxoethyl]-2-(3,4-dimethylphenyl)-4,5,6,7-tetrahydro[1,3]thiazolo [5,4-c]pyridine]
COc1ccc(-c2nc3c(s2)CN(CC(=O)N2CCN(C4CCC4)CC2)CC3)cc1F [Compound 322, 5-[2-(4-cyclobutylpiperazin-1-yl)-2-oxoethyl]-2-(3-fluoro-4-methoxyphenyl)-4,5,6,7-tetrahydro[1,3]thiazolo [5,4-c]pyridine]
O=C(CN1CCc2nc(-c3ccccc3F)sc2C1)N1CCN(C2CCC2)CC1 [Compound 299, 5-[2-(4-cyclobutylpiperazin-1-yl)-2-oxoethyl]-2-(2-fluorophenyl)-4,5,6,7-tetrahydro[1,3]thiazolo [5,4-c]pyridine]
O=C(CN1CCc2nc(-c3ccc(Cl)cc3Cl)sc2C1)N1CCN(C2CCC2)CC1 [Compound 359, 5-[2-(4-cyclobutylpiperazin-1-yl)-2-oxoethyl]-2-(2,4-dichlorophenyl)-4,5,6,7-tetrahydro[1,3]thiazolo [5,4-c]pyridine]
O=C(CN1CCc2nc(-c3ccc(F)cc3F)sc2C1)N1CCN(C2CCC2)CC1 [Compound 348, 5-[2-(4-cyclobutylpiperazin-1-yl)-2-oxoethyl]-2-(2,4-difluorophenyl)-4,5,6,7-tetrahydro[1,3]thiazolo [5,4-c]pyridine]
O=C(CN1CCc2nc(-c3ccc(C(F)(F)F)cc3)sc2C1)N1CCN(C2CCC2)CC1 [Compound 369, 5-[2-(4-cyclobutylpiperazin-1-yl)-2-oxoethyl]-2-[4-(trifluoromethyl)phenyl]-4,5,6,7-tetrahydro[1,3]thiazolo [5,4-c]pyridine]
